Experimental findings from patent US20050197350A1, “Novel quinoline, tetrahydroquinazoline, and pyrimidine derivatives and methods of treatment related to the use thereof” (TAISHO PHARMACEUTICAL CO., LTD., priority 2003, published 2005) are described below.

In the assay the test system is MCH receptors. Briefly: MCH receptor activity class (method not given). The following applies: MCH receptor; class by percent of control at 10^-7 M or IC50.

For `CN(C)c1cc(N[C@H]2CC[C@@H](NC(=O)/C=C/c3ccc([N+](=O)[O-])cc3)CC2)nc2ccccc12` [compound 79], the class was 3 (Class 3 The value of percent of control at 10^−7 M was more than 60% or the value of IC50 was more than 200 nM.). In the case of `CN(C)c1cc(N[C@H]2CC[C@@H](NC(=O)Cc3ccccc3Br)CC2)nc2ccccc12` [compound 80] it was 3 (Class 3 The value of percent of control at 10^−7 M was more than 60% or the value of IC50 was more than 200 nM.); in that of `Cc1cc(C(=O)N[C@H]2CC[C@@H](Nc3cc(N(C)C)c4ccccc4n3)CC2)ccc1F` [compound 81, N-(cis-4-{[4-(dimethylamino)quinolin-2-yl]amino}cyclohexyl)-4-fluoro-3-methylbenzamide], 1 (Class 1: The value of percent of control at 10^−7 M was less than 40% or the value of IC50 was less than 50 nM.). In the case of `CN(C)c1cc(N[C@H]2CC[C@@H](NC(=O)c3ccccc3SC(F)F)CC2)nc2ccccc12` [compound 82] it was 3 (Class 3 The value of percent of control at 10^−7 M was more than 60% or the value of IC50 was more than 200 nM.); in that of `CN(C)c1cc(N[C@H]2CC[C@@H](NC(=O)c3cc(Cl)sc3Cl)CC2)nc2ccccc12` [compound 83], 2 (Class 2: The value of percent of control at 10^−7 M was from 40% to 60% or the value of IC′50 was from 50 nM to 200 nM.); in that of `CCCSc1ncccc1C(=O)N[C@H]1CC[C@@H](Nc2cc(N(C)C)c3ccccc3n2)CC1` [compound 84], 3 (Class 3 The value of percent of control at 10^−7 M was more than 60% or the value of IC50 was more than 200 nM.). Consider `CN(C)c1cc(N[C@H]2CC[C@@H](NC(=O)c3cc(C(C)(C)C)nn3Cc3ccccc3)CC2)nc2ccccc12` [compound 85], for which the class is given as 3 (Class 3 The value of percent of control at 10^−7 M was more than 60% or the value of IC50 was more than 200 nM.). `CN(C)c1cc(N[C@H]2CC[C@@H](NC(=O)c3cc(C(C)(C)C)nn3C)CC2)nc2ccccc12` [compound 86]: the class is on record as 3 (Class 3 The value of percent of control at 10^−7 M was more than 60% or the value of IC50 was more than 200 nM.). Regarding `C/C(=C\c1ccccc1)C(=O)N[C@H]1CC[C@@H](Nc2cc(N(C)C)c3ccccc3n2)CC1` [compound 87], the class is 3 (Class 3 The value of percent of control at 10^−7 M was more than 60% or the value of IC50 was more than 200 nM.).

Turning to `CN(C)c1cc(N[C@H]2CC[C@@H](NC(=O)c3cncc(Br)c3)CC2)nc2ccccc12` [compound 88], the class was 3 (Class 3 The value of percent of control at 10^−7 M was more than 60% or the value of IC50 was more than 200 nM.). To `CN(C)c1cc(N[C@H]2CC[C@@H](NC(=O)Cc3cccc4ccccc34)CC2)nc2ccccc12` [compound 89] belongs 3 (Class 3 The value of percent of control at 10^−7 M was more than 60% or the value of IC50 was more than 200 nM.); to `Cc1cc(C(=O)N[C@H]2CC[C@@H](Nc3cc(N(C)C)c4ccccc4n3)CC2)nn1C(C)(C)C` [compound 90], 3 (Class 3 The value of percent of control at 10^−7 M was more than 60% or the value of IC50 was more than 200 nM.); to `CN(C)c1cc(N[C@H]2CC[C@@H](NC(=O)c3csc4ccccc34)CC2)nc2ccccc12` [compound 91], 3 (Class 3 The value of percent of control at 10^−7 M was more than 60% or the value of IC50 was more than 200 nM.).

With `CN(C)c1cc(N[C@H]2CC[C@@H](NC(=O)c3ccccc3)CC2)nc2ccccc12` [compound 93], the class was 3 (Class 3 The value of percent of control at 10^−7 M was more than 60% or the value of IC50 was more than 200 nM.). To `CN(C)c1cc(N[C@H]2CC[C@@H](NC(=O)c3cc4ccccc4s3)CC2)nc2ccccc12` [compound 94] belongs 3 (Class 3 The value of percent of control at 10^−7 M was more than 60% or the value of IC50 was more than 200 nM.); to `CN(C)c1cc(N[C@H]2CC[C@@H](NC(=O)COCc3ccccc3)CC2)nc2ccccc12` [compound 95], 3 (Class 3 The value of percent of control at 10^−7 M was more than 60% or the value of IC50 was more than 200 nM.). Regarding `CN(C)c1cc(N[C@H]2CC[C@@H](NC(=O)COc3ccc(Cl)cc3)CC2)nc2ccccc12` [compound 96], the class is recorded as 1 (Class 1: The value of percent of control at 10^−7 M was less than 40% or the value of IC50 was less than 50 nM.). To `CN(C)c1cc(N[C@H]2CC[C@@H](NC(=O)C3CCCCC3)CC2)nc2ccccc12` [compound 97] belongs 3 (Class 3 The value of percent of control at 10^−7 M was more than 60% or the value of IC50 was more than 200 nM.); to `Cc1onc(-c2ccccc2Cl)c1C(=O)N[C@H]1CC[C@@H](Nc2cc(N(C)C)c3ccccc3n2)CC1` [compound 98], 1 (Class 1: The value of percent of control at 10^−7 M was less than 40% or the value of IC50 was less than 50 nM.); to `CN(C)c1cc(N[C@H]2CC[C@@H](NC(=O)C3(c4ccc(Cl)cc4)CCCC3)CC2)nc2ccccc12` [compound 99], 2 (Class 2: The value of percent of control at 10^−7 M was from 40% to 60% or the value of IC′50 was from 50 nM to 200 nM.). In the case of `Cc1onc(-c2c(F)cccc2Cl)c1C(=O)N[C@H]1CC[C@@H](Nc2cc(N(C)C)c3ccccc3n2)CC1` [compound 100, 3-(2-chloro-6-fluorophenyl)-N-(cis-4-{[4-(dimethylamino)quinolin-2-yl]amino}cyclohexyl)-5-methylisoxazole-4-carboxamide] it was 1 (Class 1: The value of percent of control at 10^−7 M was less than 40% or the value of IC50 was less than 50 nM.).

On to `CC(C)S(=O)(=O)c1csc(C(=O)N[C@H]2CC[C@@H](Nc3cc(N(C)C)c4ccccc4n3)CC2)c1Cl` [compound 101], for which the class was 3 (Class 3 The value of percent of control at 10^−7 M was more than 60% or the value of IC50 was more than 200 nM.).

In the case of `CN(C)c1cc(N[C@H]2CC[C@@H](NC(=O)c3ccc([N+](=O)[O-])cc3Cl)CC2)nc2ccccc12` [compound 102], the class was 3 (Class 3 The value of percent of control at 10^−7 M was more than 60% or the value of IC50 was more than 200 nM.). `Cc1cc(C(=O)N[C@H]2CC[C@@H](Nc3cc(N(C)C)c4ccccc4n3)CC2)n(C)n1` [compound 103]: the class was 3 (Class 3 The value of percent of control at 10^−7 M was more than 60% or the value of IC50 was more than 200 nM.). On to `COc1ccc(C(=O)N[C@H]2CC[C@@H](Nc3cc(N(C)C)c4ccccc4n3)CC2)cc1OC` [compound 104], for which the class was 3 (Class 3 The value of percent of control at 10^−7 M was more than 60% or the value of IC50 was more than 200 nM.). To `CN(C)c1cc(N[C@H]2CC[C@@H](NC(=O)c3cccc(F)c3)CC2)nc2ccccc12` [compound 105, N-(cis-4-{[4-(dimethylamino)quinolin-2-yl]amino}cyclohexyl)-3-fluorobenzamide] belongs 2 (Class 2: The value of percent of control at 10^−7 M was from 40% to 60% or the value of IC′50 was from 50 nM to 200 nM.). With `CN(C)c1cc(N[C@H]2CC[C@@H](NC(=O)c3ccc(F)c(C(F)(F)F)c3)CC2)nc2ccccc12` [compound 106, N-(cis-4-{[4-(dimethylamino)quinolin-2-yl]amino}cyclohexyl)-4-fluoro-3-(trifluoromethyl)benzamide], the class was 1 (Class 1: The value of percent of control at 10^−7 M was less than 40% or the value of IC50 was less than 50 nM.).

Turning to `Cc1nn(-c2ccccc2)nc1C(=O)N[C@H]1CC[C@@H](Nc2cc(N(C)C)c3ccccc3n2)CC1` [compound 107, N-(cis-4-{[4-(dimethylamino)quinolin-2-yl]amino}cyclohexyl)-5-methyl-2-phenyl-2H-1,2,3-triazole-4-carboxamide], the class was 2 (Class 2: The value of percent of control at 10^−7 M was from 40% to 60% or the value of IC′50 was from 50 nM to 200 nM.). To `COc1ccc(Oc2ccc([N+](=O)[O-])cc2C(=O)N[C@H]2CC[C@@H](Nc3cc(N(C)C)c4ccccc4n3)CC2)cc1` [compound 108, N-(cis-4-{[4-(dimethylamino)quinolin-2-yl]amino}cyclohexyl)-2-(4-methoxyphenoxy)-5-nitrobenzamide] belongs 1 (Class 1: The value of percent of control at 10^−7 M was less than 40% or the value of IC50 was less than 50 nM.); to `CN(C)c1cc(N[C@H]2CC[C@@H](NC(=O)c3cccc4ccccc34)CC2)nc2ccccc12` [compound 109], 3 (Class 3 The value of percent of control at 10^−7 M was more than 60% or the value of IC50 was more than 200 nM.); to `CN(C)c1cc(N[C@H]2CC[C@@H](NC(=O)c3ccc4ccccc4c3)CC2)nc2ccccc12` [compound 110], 3 (Class 3 The value of percent of control at 10^−7 M was more than 60% or the value of IC50 was more than 200 nM.). In the case of `CN(C)c1cc(N[C@H]2CC[C@@H](NC(=O)c3ccc([N+](=O)[O-])o3)CC2)nc2ccccc12` [compound 111, N-(cis-4-{[4-(dimethylamino)quinolin-2-yl]amino}cyclohexyl)-5-nitro-2-furamide] it was 1 (Class 1: The value of percent of control at 10^−7 M was less than 40% or the value of IC50 was less than 50 nM.); in that of `CN(C)c1cc(N[C@H]2CC[C@@H](NC(=O)COc3ccccc3)CC2)nc2ccccc12` [compound 112, N-(cis-4-{[4-(dimethylamino)quinolin-2-yl]amino}cyclohexyl)-2-phenoxyacetamide], 1 (Class 1: The value of percent of control at 10^−7 M was less than 40% or the value of IC50 was less than 50 nM.); in that of `CN(C)c1cc(N[C@H]2CC[C@@H](NC(=O)COc3ccccc3[N+](=O)[O-])CC2)nc2ccccc12` [compound 113], 3 (Class 3 The value of percent of control at 10^−7 M was more than 60% or the value of IC50 was more than 200 nM.). Regarding `CN(C)c1cc(N[C@H]2CC[C@@H](NC(=O)c3cnc4ccccc4n3)CC2)nc2ccccc12` [compound 114, N-(cis-4-{[4-(dimethylamino)quinolin-2-yl]amino}cyclohexyl)quinoxaline-2-carboxamide], the class is given as 2 (Class 2: The value of percent of control at 10^−7 M was from 40% to 60% or the value of IC′50 was from 50 nM to 200 nM.).
